The record followed here is EP0079167A1, “A carbapenem compound, preparation and use” (BEECHAM GROUP PLC, priority 1981, dated 1983).

In brackets after ≈: the same amount, converted by molar mass. Like-named read-outs stand apart in the source and are kept apart here.

The subject of data set [1] is Escherichia coli. Nature of the data set: Antibacterial activity in vitro (MIC). In kind it is cell-based.
The subject of data set [2] is Klebsiella aerogenes. Kind of data set: Antibacterial activity in vitro (MIC). In kind it is cell-based.
The subject of data set [3] is Staphylococcus aureus. Kind of data set: Antibacterial activity in vitro (MIC). The data set is classed as cell-based.
Data set [4] is described as follows: Tissue stability in mouse kidney homogenate (HPLC). The data set is classed as in vitro ADME. The conditions noted are these: 37°C, stability relative to MM13902 taken as standard (1.0), values >1.0 = fold increase in stability. As to the method:
(§1) A preparation of 2% mouse kidney homogenate was mixed with equal volumes of a 200 µg/ml solution of the antibiotic to be tested. The stability of the antibiotic at 37 °C was studied by removal of aliquots and subjecting them to a high pressure liquid chromatographic analysis. The values are given in figures relative to that obtained for MM13902 of U.K. Patent No. 1489235. The values are given in figures relative to that obtained for MM13902 which is taken as standard (1.0). Values greater than 1.0 reflect the fold increase in stability relative to MM13902.

Data set [5] in a line: Tissue stability in human kidney (HPLC). The data set is classed as in vitro ADME. Particulars: stability relative to MM13902 taken as standard (1.0), values >1.0 = fold increase in stability. As to the method:
as §1

Data set [6] has as its system E. coli E96R+. Kind of data set: Antibacterial activity in vivo against experimental mouse infection. The conditions noted are these: Escherichia coli, read-out: CD50. As to the method: (§2) CD50 mg/kg (total dose) - Compounds dosed at 1 and 5 hours past infection.
The subject of data set [7] is Staph. aureus Smith. The description is as above. The conditions noted are these: Staphylococcus aureus; mouse infection with Staph. aureus Smith; total dose; dosed at 1 and 5 hours past infection; read-out: CD50 (the source's name). As to the method:
as §2

[8] abbreviates: Escherichia coli Ba78R+, read-out: MIC.
[9] abbreviates: Escherichia coli JT4R+, read-out: MIC.
Setting [10] is: Klebsiella aerogenes VA2R+ (printed Va2R+ for Compound B).

For the molecule `C[C@H](O)[C@@H]1C(=O)N2C(C(=O)O)=C(S/C=C\C(=O)OCCN)C[C@H]12` [Compound A], the MIC (usually the lowest concentration that inhibits growth of the organism) in data set [1] stood at 0.8 µg/mL (≈ 2.34 µM); in data set [1] (setting [8]) it was 1.6 µg/mL (≈ 4.67 µM); in data set [1] (setting [9]), 6.2 µg/mL (≈ 18.1 µM); in data set [1] (Escherichia coli JT20R+, read-out: MIC) it was 6.2 µg/mL (≈ 18.1 µM); in data set [2] (Klebsiella aerogenes 185R+), 3.1 µg/mL (≈ 9.05 µM); in data set [2] (Klebsiella aerogenes 192R+) it was 6.2 µg/mL (≈ 18.1 µM). The MIC was 6.2 µg/mL (≈ 18.1 µM) in data set [2] (Klebsiella aerogenes Ba95R+); 25 µg/mL (≈ 73 µM) in data set [2] (setting [10]); 0.1 µg/mL (≈ 0.292 µM) in data set [3] (ATCC25923, Staphylococcus aureus ATCC 25923); 0.2 µg/mL (≈ 0.584 µM) in data set [3] (Staphylococcus aureus 68/8484); 0.2 µg/mL (≈ 0.584 µM) in data set [3] (Staphylococcus aureus 150+); 0.2 µg/mL (≈ 0.584 µM) in data set [3] (Staphylococcus aureus MB9+). Besides, the MIC in data set [3] (Staphylococcus aureus N36MR) stood at 0.4 µg/mL (≈ 1.17 µM); in data set [3] (Staphylococcus aureus N71MR) it was 0.8 µg/mL (≈ 2.34 µM); in data set [3] (Staphylococcus aureus Smith), 0.2 µg/mL (≈ 0.584 µM); in data set [3] (Staphylococcus aureus T71+), 0.1 µg/mL (≈ 0.292 µM); in data set [3] (Staphylococcus aureus T100) it was 0.2 µg/mL (≈ 0.584 µM). Further, the entries for the “Tissue Stability Values” in data set [4] and in data set [5] were 1.3 and 1.2, respectively. Also, the ED50 in data set [6] turned out to be 66 mg/kg; in data set [7], 4.5 mg/kg.
`C[C@@H](O)[C@H]1C(=O)N2C(C(=O)O)=C(S/C=C\C(=O)OCCN)C[C@H]12` [Compound B, (5R.6S)-3-[(Z)-2-(2-aminoethyloxycarbonyl)ethenylthio]-6-[(R)-1-hydroxyethyl]-7-oxo-1-azabicyclo[3.2.0]hept-2-ene-2-carboxylic acid]: the MIC is 0.1 µg/mL (≈ 0.292 µM) in data set [1] (setting [8]); 0.1 µg/mL (≈ 0.292 µM) in data set [1] (setting [9]); 0.2 µg/mL (≈ 0.584 µM) in data set [1] (Escherichia coli JT56R+, read-out: MIC); 0.2 µg/mL (≈ 0.584 µM) in data set [1] (Escherichia coli JT177R, read-out: MIC); 0.4 µg/mL (≈ 1.17 µM) in data set [2] (Klebsiella aerogenes Ba95R+); 0.2 µg/mL (≈ 0.584 µM) in data set [2] (Klebsiella aerogenes Du185R). For the same molecule, the MIC stood at 0.2 µg/mL (≈ 0.584 µM) in data set [2] (Klebsiella aerogenes Du192R); 0.4 µg/mL (≈ 1.17 µM) in data set [2] (setting [10]); 0.4 µg/mL (≈ 1.17 µM) in data set [3] (Staphylococcus aureus MANSTK 33269); 0.1 µg/mL (≈ 0.292 µM) in data set [3] (Staphylococcus aureus T2p-); 0.1 µg/mL (≈ 0.292 µM) in data set [3] (Staphylococcus aureus T97p+); 0.02 µg/mL (≈ 0.0584 µM) in data set [3] (Staphylococcus aureus T100p-). Also, the MIC in data set [3] (Staphylococcus aureus T118p+) was 0.05 µg/mL (≈ 0.146 µM); in data set [3] (Staphylococcus aureus T120p-), 0.02 µg/mL (≈ 0.0584 µM). Moreover, the figures for the “Tissue Stability Values” in data set [4] and in data set [5] were 2.4 and 2.2, respectively. For the same molecule, the ED50 was 13 mg/kg in data set [6] and less than 0.4 mg/kg in data set [7].
Regarding `C[C@H](O)[C@H]1C(=O)N2C(C(=O)O)=C(S/C=C\C(=O)OCCN)C[C@H]12` [Compound C], the MIC in data set [1] (Escherichia coli JT39, read-out: MIC) came to 3.1 µg/mL (≈ 9.05 µM); in data set [2] (Klebsiella aerogenes A) it was 3.1 µg/mL (≈ 9.05 µM); in data set [3] (Staphylococcus aureus 1517), 6.2 µg/mL (≈ 18.1 µM); in data set [3] (Staphylococcus aureus Russell), 0.4 µg/mL (≈ 1.17 µM).
Take `CC(=O)N/C=C/SC1=C(C(=O)O)N2C(=O)[C@@H]([C@H](C)OS(=O)(=O)O)[C@H]2C1` [MM13902]: the “Tissue Stability Values” in data set [4] and in data set [5] was 1.0 each time.
